Consider 16 molecules from US5955440A, “Macrolide LHRH antagonists” (Abbott Laboratories, priority 1998, dated 1999).

In this assay the target is T1, LHRH rat pituitary receptor (Rattus norvegicus, UniProt P30969).
T1 construct: from tissue; host or cells: rat pituitary
T1 sequence (P30969 1-327): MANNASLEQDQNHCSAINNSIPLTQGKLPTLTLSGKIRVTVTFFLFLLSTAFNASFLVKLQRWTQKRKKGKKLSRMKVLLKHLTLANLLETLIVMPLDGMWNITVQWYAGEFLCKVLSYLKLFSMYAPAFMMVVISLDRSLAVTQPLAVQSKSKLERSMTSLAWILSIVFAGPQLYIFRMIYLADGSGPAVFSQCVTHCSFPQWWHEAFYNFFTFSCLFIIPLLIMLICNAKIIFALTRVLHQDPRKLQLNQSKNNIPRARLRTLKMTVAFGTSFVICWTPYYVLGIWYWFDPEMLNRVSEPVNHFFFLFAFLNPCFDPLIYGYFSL
Kind of assay: LHRH rat pituitary receptor binding (pKI). The conditions noted are these: negative logarithm of the equilibrium dissociation constants, Table 1, read-out: receptor binding affinity (pKI) (converted). The method, then:
Representative compounds of the present invention were evaluated in in vitro tests for LHRH rat pituitary receptor binding (pKI) and for LH inhibition from rat pituitary cells for antagonist potency (pA2). The tests employed the methods detailed in F. Haviv, et al. J. Med. Chem., 32: 2340-2344 (1989). The receptor binding affinity (pKI) is the negative logarithm of the equilibrium dissociation constants.

Regarding `CC[C@H]1OC(=O)[C@H](C)[C@@H](O[C@H]2C[C@@](C)(OC)[C@@H](O)[C@H](C)O2)[C@H](C)[C@@H](O[C@@H]2O[C@H](C)C[C@H](N(C)CCC[S+](C)[O-])[C@H]2O)[C@](C)(OC)C[C@@H](C)C(=O)[C@H](C)[C@H]2N(CCc3ccc(Cl)c(Cl)c3)C(=O)O[C@]12C` (stereo partly shown) [Example 56, 3'-N-Desmethyl-3'-N-[3-(methylsulfoxy)propyl]-11-deoxy-11-[carboxy-(3,4-dichlorophenethylamino)]-6-O-methyl-erythromycin A 11,12-(cyclic carbamate)], the Ki was 1.78 nM. Take `CCNC(=S)N(C)[C@H]1C[C@@H](C)O[C@@H](O[C@@H]2[C@@H](C)[C@H](O[C@H]3C[C@@](C)(OC)[C@@H](O)[C@H](C)O3)[C@@H](C)C(=O)O[C@H](CC)[C@@]3(C)OC(=O)N(CCc4ccc(Cl)c(Cl)c4)[C@@H]3[C@@H](C)C(=O)[C@H](C)C[C@@]2(C)OC)[C@@H]1O` [Example 57, 3'-N-Desmethyl-3'-N-ethylthiourea-11-deoxy-11-[carboxy-(3,4-dichlorophenethylamino)]-6-O-methyl-erythromycin A 11,12-(cyclic carbamate)]: the Ki is 9.12 nM. Turning to `CC[C@H]1OC(=O)[C@H](C)[C@@H](O[C@H]2C[C@@](C)(OC)[C@@H](O)[C@H](C)O2)[C@H](C)[C@@H](O[C@@H]2O[C@H](C)C[C@H](N(C)Cc3ccc(CO)o3)[C@H]2O)[C@](C)(OC)C[C@@H](C)C(=O)[C@H](C)[C@H]2N(CCc3ccc(Cl)c(Cl)c3)C(=O)O[C@]12C` [Example 58, 3'-N-Desmethyl-3'-N-[2-(5-hydroxymethyl)furyl]methyl-11-deoxy-11-[carboxy-(3,4-dichlorophenethylamino)]-6-O-methyl-erythromycin A 11,12-(cyclic carbamate)], the Ki was 1.55 nM. With `CC[C@H]1OC(=O)[C@H](C)[C@@H](O[C@H]2C[C@@](C)(OC)[C@@H](O)[C@H](C)O2)[C@H](C)[C@@H](O[C@@H]2O[C@H](C)C[C@H](N(C)CC3CC3)[C@H]2O)[C@](C)(OC)C[C@@H](C)C(=O)[C@H](C)[C@H]2N(CC3(c4ccc(Cl)c(Cl)c4)CC3)C(=O)O[C@]12C` [Example 59, 3'-N-Desmethyl-3'-N-cyclopropylmethyl-11-deoxy-11-[carboxy-(α,α-cyclopropyl-3,4-dichlorophenethylamino)]-6-O-methyl-erythromycin A 11,12-(cyclic carbamate)], the Ki is 3.72 nM. As for `CCCN(C)[C@H]1C[C@@H](C)O[C@@H](O[C@@H]2[C@@H](C)[C@H](O[C@H]3C[C@@](C)(OC)[C@@H](O)[C@H](C)O3)[C@@H](C)C(=O)O[C@H](CC)[C@@]3(C)OC(=O)N(CCNc4ccc(Cl)cc4)[C@@H]3[C@@H](C)C(=O)[C@H](C)C[C@@]2(C)OC)[C@@H]1O` [Example 60, 3'-N-Desmethyl-3'-N-propyl-11-deoxy-11-[carboxy-(4-chloroanilinoethylamino)]-6-O-methyl-erythromycin A 11,12-(cyclic carbamate)], the Ki is 2.69 nM. As for `CC[C@H]1OC(=O)[C@H](C)[C@@H](O[C@H]2C[C@@](C)(OC)[C@@H](O)[C@H](C)O2)[C@H](C)[C@@H](O[C@@H]2O[C@H](C)C[C@H](N(C)C3CCCC3)[C@H]2O)[C@](C)(OC)C[C@@H](C)C(=O)[C@H](C)[C@H]2N(CCNc3ccc(Cl)cc3)C(=O)O[C@]12C` [Example 61], the Ki was 2.69 nM. Then `CC[C@H]1OC(=O)[C@H](C)[C@@H](O[C@H]2C[C@@](C)(OC)[C@@H](O)[C@H](C)O2)[C@H](C)[C@@H](O[C@@H]2O[C@H](C)C[C@H](N(C)Cc3ncc[nH]3)[C@H]2O)[C@](C)(OC)C[C@@H](C)C(=O)[C@H](C)[C@H]2N(CCc3ccc(Cl)c(Cl)c3)C(=O)O[C@]12C` [Example 63, 3'-N-Desmethyl-3'-N-(2-imidazolyl)methyl-11-deoxy-11-[carboxy-(3,4-dichlorophenethylamino)]-6-O-methyl-erythromycin A 11,12-(cyclic carbamate)], with 7.41 nM. Under `CC[C@H]1OC(=O)[C@H](C)[C@@H](O[C@H]2C[C@@](C)(OC)[C@@H](O)[C@H](C)O2)[C@H](C)[C@@H](O[C@@H]2O[C@H](C)C[C@H](N(C)Cc3cccnc3)[C@H]2O)[C@](C)(OC)C[C@@H](C)C(=O)[C@H](C)[C@H]2N(CCc3ccc(Cl)c(Cl)c3)C(=O)O[C@]12C` [Example 64, 3'-N-Desmethyl-3'-N-(3-pyridyl)methyl-11-deoxy-11-[carboxy-(3,4-dichlorophenethylamino)]-6-O-methyl-erythromycin A 11,12-(cyclic carbamate)] stands 6.92 nM; under `CC[C@H]1OC(=O)[C@H](C)[C@@H](O[C@H]2C[C@@](C)(OC)[C@@H](O)[C@H](C)O2)[C@H](C)[C@@H](O[C@@H]2O[C@H](C)C[C@H](N(C)Cc3ccccn3)[C@H]2O)[C@](C)(OC)C[C@@H](C)C(=O)[C@H](C)[C@H]2N(CCc3ccc(Cl)c(Cl)c3)C(=O)O[C@]12C` [Example 65, 3'-N-Desmethyl-3'-N-(2-pyridyl)methyl-11-deoxy-11-[carboxy-(3,4-dichlorophenethylamino)]-6-O-methyl-erythromycin A 11,12-(cyclic carbamate)], 7.41 nM. Then `CC[C@H]1OC(=O)[C@H](C)[C@@H](O[C@H]2C[C@@](C)(OC)[C@@H](O)[C@H](C)O2)[C@H](C)[C@@H](O[C@@H]2O[C@H](C)C[C@H](N(C)Cc3ccc([N+](=O)[O-])s3)[C@H]2O)[C@](C)(OC)C[C@@H](C)C(=O)[C@H](C)[C@H]2N(CCc3ccc(Cl)c(Cl)c3)C(=O)O[C@]12C` [Example 66, 3'-N-Desmethyl-3'-N-[(5-nitro-2-thienyl]methyl-11-deoxy-11-[carboxy-(3,4-dichlorophenethylamino)]-6-O-methyl-erythromycin A 11,12-(cyclic carbamate)], with 1.38 nM.

In the case of `CC[C@H]1OC(=O)[C@H](C)[C@@H](O[C@H]2C[C@@](C)(OC)[C@@H](O)[C@H](C)O2)[C@H](C)[C@@H](O[C@@H]2O[C@H](C)C[C@H](N(C)Cc3ccc(-c4ccc(Cl)cc4)o3)[C@H]2O)[C@](C)(OC)C[C@@H](C)C(=O)[C@H](C)[C@H]2N(CCc3ccc(Cl)c(Cl)c3)C(=O)O[C@]12C` [Example 67, 3'-N-Desmethyl-3'-N-[5-(4-chlorophenyl)-2-furylmethyl]-11-deoxy-11-[carboxy-(3,4-dichlorophenethylamino)]-6-O-methyl-erythromycin A 11,12-(cyclic carbamate)], the Ki is 7.76 nM. Under `CC[C@H]1OC(=O)[C@H](C)[C@@H](O[C@H]2C[C@@](C)(OC)[C@@H](O)[C@H](C)O2)[C@H](C)[C@@H](O[C@@H]2O[C@H](C)C[C@H](N(C)Cc3ccc([N+](=O)[O-])o3)[C@H]2O)[C@](C)(OC)C[C@@H](C)C(=O)[C@H](C)[C@H]2N(CCc3ccc(Cl)c(Cl)c3)C(=O)O[C@]12C` [Example 68, 3'-N-Desmethyl-3'-N-[5-nitro-2-furylmethyl]-11-deoxy-11-[carboxy-(3,4-dichlorophenethylamino)]-6-O-methyl-erythromycin A 11,12-(cyclic carbamate)] stands 5.13 nM; under `CC[C@H]1OC(=O)[C@H](C)[C@@H](O[C@H]2C[C@@](C)(OC)[C@@H](O)[C@H](C)O2)[C@H](C)[C@@H](O[C@@H]2O[C@H](C)C[C@H](N(C)CC3CC(OC)OC3OC)[C@H]2O)[C@](C)(OC)C[C@@H](C)C(=O)[C@H](C)[C@H]2N(CCc3ccc(Cl)c(Cl)c3)C(=O)O[C@]12C` (stereo partly shown) [Example 69, 3'-N-Desmethyl-3'-N-[2,5-dimethoxy-3-tetrahydrofurylmethyl]-11-deoxy-11-[carboxy-(3,4-dichlorophenethylamino)]-6-O-methyl-erythromycin A 11,12-(cycliccarbamate)], 6.17 nM; under `CC[C@H]1OC(=O)[C@H](C)[C@@H](O[C@H]2C[C@@](C)(OC)[C@@H](O)[C@H](C)O2)[C@H](C)[C@@H](O[C@@H]2O[C@H](C)C[C@H](N(C)Cc3cccc(C)n3)[C@H]2O)[C@](C)(OC)C[C@@H](C)C(=O)[C@H](C)[C@H]2N(CCc3ccc(Cl)c(Cl)c3)C(=O)O[C@]12C` [Example 70, 3'-N-Desmethyl-3'-N-[6-methyl-2-pyridylmethyl]-11-deoxy-11-[carboxy-(3,4-dichlorophenethylamino)]-6-O-methyl-erythromycin A 11,12-(cyclic carbamate)], 5.89 nM. Then `CC[C@H]1OC(=O)[C@H](C)[C@@H](O[C@H]2C[C@@](C)(OC)[C@@H](O)[C@H](C)O2)[C@H](C)[C@@H](O[C@@H]2O[C@H](C)C[C@H](N(C)CCCC(F)(F)F)[C@H]2O)[C@](C)(OC)C[C@@H](C)C(=O)[C@H](C)[C@H]2N(CCc3ccc(Cl)c(Cl)c3)C(=O)O[C@]12C` [Example 71, 3'-N-Desmethyl-3'-N-(4,4,4-trifluorobutyl)-11-deoxy-11-[carboxy-(3,4-dichlorophenethylamino)]-6-O-methyl-erythromycin A 11,12-(cyclic carbamate)], with 6.17 nM; and `CC[C@H]1OC(=O)[C@H](C)[C@@H](O[C@H]2C[C@@](C)(OC)[C@@H](O)[C@H](C)O2)[C@H](C)[C@@H](O[C@@H]2O[C@H](C)C[C@H](N(C)Cc3ccc4ccccc4c3Br)[C@H]2O)[C@](C)(OC)C[C@@H](C)C(=O)[C@H](C)[C@H]2N(CCc3ccc(Cl)c(Cl)c3)C(=O)O[C@]12C` [Example 72, 3'-N-Desmethyl-3'-N-(1-bromo-2-napthylmethyl)-11-deoxy-11-[carboxy-(3,4-dichlorophenethylamino)]-6-O-methyl-erythromycin A 11,12-(cyclic carbamate)], with 0.676 nM.
